{"source": "patent US20260000781A1", "about": "“FC CONJUGATES INCLUDING AN INHIBITOR OF CD73 AND USES THEREOF” (Cidara Therapeutics, Inc., priority 2022, published 2026)", "test_system": "human PBMCs inhibited by AMP", "assay": "PBMC activation assay by flow cytometry (rescue of AMP suppressed cells)", "format": "cell-based", "method": "(§1) Human PBMCs (StemCell Technologies cat no. 70025) prepared in ImmunoCult™—XF T cell Expansion medium (StemCell Technologies cat no. 10981) were seeded at 1×10^5 cells per well (100 μL of 1×10^6 cells/mL) in the presence or absence of T cell activator anti-CD3/CD28/CD2 (StemCell Technologies cat no. 10970) in 96 well round bottom plates (Corning cat no. 3788). Ten-fold serial dilutions of each test article was prepared, resulting in final concentrations ranging from 0.1 nM-10,000 nM. 50 μL of test article was added to the cells, followed by 50 μL of adenosine 5′ monophosphate (AMP; MilliporeSigma cat no. A1752) for a final concentration of 30 μM. Plates were incubated at 37° C. with 5% CO2 for 72 h. After 72 h the cells were centrifuged for 5 min at 300×g at 4° C. then washed twice with cell staining buffer (BioLegend cat no. 420201). Cells were incubated with Fc block (Unlabeled, Clone: 3070; BD Biosciences cat no. 5642220) for 10 min at 4° C. Cells were stained with anti-human CD25 antibody, clone 2A3, PE (StemCell Technologies cat no. 60153PE) for 20 min at 4° C. protected from light. Cells were washed twice with cell staining buffer and resuspended in 200 μL of cell staining buffer. Samples were acquired using a Cytek Northern Lights flow cytometry system. CD25^+ by flow cytometry was used as the readout to measure PBMC activation after AMP inhibition. Samples were analyzed using FlowJo version 10. Percent rescue […] was plotted using GraphPad Prism Version 6 and EC50 values were generated using nonlinear regression analysis for total PBMCs or CD8^+ T cells using CD25^+ as read-out or granzyme B^+.\nas §1, with “test article were prepared, resulting” for “test article was prepared, resulting”, “nonlinear regression analysis.” for “nonlinear regression analysis for total PBMCs or CD8^+ T cells using CD25^+ as read-out or granzyme B^+.”\nHuman PBMCs (StemCell Technologies cat no. 70025) prepared in ImmunoCult™—XF T cell Expansion medium (StemCell Technologies cat no. 10981) were seeded at 1×10^5 cells per well (100 μL of 1×10^6 cells/mL) in the presence or absence of T cell activator anti-CD3/CD28/CD2 (StemCell Technologies cat no. 10970) in 96 well round bottom plates (Corning cat no. 3788). Ten-fold serial dilutions of each test article was prepared in medium (ranging from 4,000 nM-0.4 nM), resulting in final concentrations ranging from 1,000 nM-0.1 nM. 50 μL of test article was added to the cells, followed by 50 μL of adenosine 5′ monophosphate (AMP; MilliporeSigma cat no. A1752) for a final concentration of 30 μM. […]", "key": {"[1]": {"details": "read-out: 30 μM AMP EC50, CD25+ as a read-out, total PBMCs, 72 h"}, "[2]": {"details": "30 μM AMP, 72 h, read-out: CD8+CD25+ EC50"}, "[3]": {"details": "30 μM AMP, 72 h, read-out: CD8+granzyme B+ EC50"}}, "note": "Read-outs that look alike come from different tables or passages of the source."}
{"molecule": "C[C@H](Nc1cc(Cl)nc2c1cnn2[C@@H]1O[C@H](COP(=O)(O)CP(=O)(O)O)[C@@H](O)[C@H]1O)c1ccccc1F", "note": "[AB680]", "values": [{"measurement": "EC50", "setting": "Homo sapiens, PBMC, read-out: 30 μM AMP EC50 [nM], CD25+ as a read-out, total PBMCs, 72 h", "result": 9, "unit": "nM"}, {"measurement": "EC50", "setting": "Homo sapiens, PBMC, read-out: EC50 [nM] (median, n = 3) CD4+CD25+, 30 μM AMP, 72 h", "result": 10, "unit": "nM"}, {"measurement": "EC50", "setting": "Homo sapiens, PBMC, read-out: EC50 [nM] (median, n = 3) CD8+CD25+, 30 μM AMP, 72 h", "result": 10, "unit": "nM"}, {"measurement": "EC50", "setting": "Homo sapiens, PBMC, read-out: EC50 [nM] (median, n = 3) CD8+Granzyme B+, 30 μM AMP, 72 h", "result": 47, "unit": "nM"}, {"measurement": "EC50", "setting": "Homo sapiens, PBMC, 30 μM AMP, 72 h, CD4+CD25+, CD8+CD25+, CD8+Granzyme B+, read-out: EC50 values (range over the read-outs)", "result": "10 to 54", "unit": "nM"}, {"measurement": "EC50", "setting": "Homo sapiens, PBMC, 30 μM AMP, 72 h, read-out: CD8+CD25+ EC50", "result": 8.1, "unit": "nM"}, {"measurement": "EC50", "setting": "Homo sapiens, PBMC, 30 μM AMP, 72 h, read-out: CD8+granzyme B+ EC50", "result": 1.4, "unit": "nM"}]}
{"molecule": "COC[C@](CO)(OC[C@H]1O[C@@H](n2ncc3c(NC4CCCC4)nc(Cl)nc32)[C@H](O)[C@@H]1O)P(=O)(O)O", "note": "[OP5244]", "values": [{"measurement": "EC50", "setting": "[1]", "result": 8, "unit": "nM"}, {"measurement": "EC50", "setting": "read-out: 30 μM AMP EC50, batches of Conjugate 172c, CD25+ as a read-out, 72 h (Table 13)", "result": 17, "unit": "nM"}]}
{"molecule": "COC[C@](CO)(OC[C@H]1O[C@@H](n2ncc3c(NC4CCCC4)nc(Cl)nc32)[C@H](O)[C@@H]1O)P(=O)(O)O", "note": "[OP-5244]", "values": [{"measurement": "EC50", "setting": "[2]", "result": 5.9, "unit": "nM"}, {"measurement": "EC50", "setting": "[3]", "result": 1.4, "unit": "nM"}, {"measurement": "EC50", "setting": "read-out: EC50 [nM] (median, n = 3) CD4+CD25+, 30 μM AMP, 72 h", "result": 7, "unit": "nM"}, {"measurement": "EC50", "setting": "read-out: EC50 [nM] (median, n = 3) CD8+CD25+, 30 μM AMP, 72 h", "result": 7, "unit": "nM"}, {"measurement": "EC50", "setting": "read-out: EC50 [nM] (median, n = 3) CD8+Granzyme B+, 30 μM AMP, 72 h", "result": 8, "unit": "nM"}]}
{"molecule": "O=P(O)(O)COC[C@H]1O[C@@H](n2ncc3c(N4CC5(CCc6ccccc65)C4)nc(Cl)nc32)[C@H](O)[C@@H]1O", "note": "[SHR170008]", "values": [{"measurement": "EC50", "setting": "[2]", "result": 598, "unit": "nM"}, {"measurement": "EC50", "setting": "[3]", "result": 212, "unit": "nM"}, {"measurement": "EC50", "setting": "[1]", "result": 374, "unit": "nM"}]}
